Reference: PMC5365648, “Pharmacokinetics of the Novel Echinocandin CD101 in Multiple Animal Species” (Antimicrobial Agents and Chemotherapy, 2017)
Starred links: 1 amine or outer side, 2 acyl side, 3 side chain; linkers in the order of their positions; H or OH if unused. Positions of bridges follow the written chain, without caps; N, C: chain ends. Non-standard residues stand in square brackets, D forms with d. Residues, ends and D or L forms follow the SMILES beside them. *: point of attachment. Orn(4R-OH,5R-OCH2CH2NMe3+) = C[N+](C)(C)CCO[C@@H](N[*:3])[C@H](O)C[C@H](N[*:1])C(=O)[*:2]; pTerphenylCO(4''-OnC5H11) = CCCCCOc1ccc(-c2ccc(-c3ccc(C(=O)*)cc3)cc2)cc1; hTyr(3S-OH,4S-OH) = N[C@H](C(=O)O)[C@H](O)[C@@H](O)c1ccc(O)cc1; Pro(3S-OH,4S-Me) = C[C@H]1CN[C@H](C(=O)O)[C@H]1O; Hyp = O=C(O)[C@@H]1C[C@@H](O)CN1

Tests used:
[1] = Chimpanzee pharmacokinetics, i.v. infusion; format: in vivo, chimpanzees
Experimental: A single 1-mg/kg dose of CD101 or anidulafungin was administered by i.v. infusion (1 h) to female chimpanzees (n = 2/group), and blood samples (via peripheral vein) were drawn for plasma processing at the midpoint of infusion, at the end of infusion, at 2, 4, 8, 12, 24, 48, and 72 h postdose, and on days 5, 7, and 10 postdose.
(§1) For each of the pharmacokinetic studies, whole-blood samples (K3EDTA as anticoagulant) were collected and centrifuged within 30 min of collection. The resulting plasma was harvested and stored at −20°C until analysis. Tissue samples were homogenized by a bead-based homogenizer following the addition of deionized water to excised tissue in a 2:1 (vol/wt) ratio and stored at −20°C until analysis. Prior to analysis, plasma or homogenized tissue samples were quenched with acetonitrile (3:1, acetonitrile-plasma or tissue ratio) containing an appropriate internal standard (isotopically labeled d9-CD101 [mouse and rat] or a structural analog [dog, monkey, and chimpanzee]). Plasma and tissue homogenate concentrations (quantified against calibration standards processed the same way) were determined by reverse-phase, gradient liquid chromatography with tandem mass spectrometric detection (LC-MS/MS) using an AB-SCIEX API 3200Q/4000 mass spectrometry system. Calibration standard ranges were the following: 0.400 (lower limit of quantitation, [LLOQ]) to 200 μg/ml (CD101, mouse), 0.040 (LLOQ) to 10 μg/ml (anidulafungin, mouse), 0.002 (LLOQ) to 10 μg/ml (CD101, rat), 0.005 (LLOQ) to 10 μg/ml (anidulafungin, rat), 0.050 (LLOQ) to 10 μg/ml (CD101, dog), 0.020 (LLOQ) to 10 μg/ml (anidulafungin, dog), 0.010 (LLOQ) to 10 μg/ml (CD101, monkey), 0.001 (LLOQ) to 10 μg/ml (anidulafungin, monkey), 0.015 (LLOQ) to 10 μg/ml (CD101, chimpanzee), and 0.015 (LLOQ) to 10 μg/ml (anidulafungin, chimpanzee). When necessary, dilutions with blank matrix were made for samples that quantified above the upper limit of quantitation. The methods used in the analysis were qualified as fit for purpose: calibration standards were matrix matched with the exception that human plasma calibration standards were used to analyze chimpanzee plasma samples due to the rarity of blank chimpanzee plasma, and, for each analytical batch, triplicate calibration standards were included at the beginning, approximately in the middle, and at the end of the batch. Following analysis, quantitation was carried out by a calibration curve comprising the analyte/internal standard area ratio versus concentration. Analytical batch acceptance followed the general guidance that triplicate standards/quality controls be within ±20% for accuracy (percentage of nominal concentration) and ≤20% for precision (percent coefficient of variation).
(§2) Pharmacokinetic parameters were calculated by noncompartmental analysis using Phoenix WinNonlin (version 6.3; Pharsight, Mountain View, CA) from either individual or mean (mouse) concentration-time profiles. An unpaired t test was used to compare mean exposures from male and female rats.

[2] = Cynomolgus monkey pharmacokinetics, i.v. bolus; design: species or system cynomolgus monkeys; settings: in vivo, iv, male cynomolgus monkeys, single 2.13 mg/kg slow i.v. bolus, plasma, LC-MS/MS, noncompartmental
Experimental: A single dose of 2.13 mg/kg CD101 or 2.8 mg/kg anidulafungin was administered by slow i.v. bolus (∼10 min) to cynomolgus monkeys (n = 3/group), and blood samples (via peripheral vein) were drawn for plasma processing at 0.167, 0.5, 1, 3, 8, 12, 24, 48, and 72 h postdose.
as §1, §2

[3] = ref [10], cited from earlier work
Experimental: The half-life of CD101 in human is about 3-fold longer (about 90 h) than that of anidulafungin (about 30 h) ([10]). It should be noted that 90 h is the effective half-life of CD101 (i.e., the half-life that covers the majority of the AUC), with a longer, later-phase half-life evident at lower concentration ...

[4] = in vivo, iv, female chimpanzees, single 1 mg/kg i.v. infusion (1 h), plasma, LC-MS/MS, noncompartmental, n = 2

For `CCCCCOc1ccc(-c2ccc(-c3ccc(C(=O)N[C@H]4C[C@@H](O)[C@@H](OCC[N+](C)(C)C)NC(=O)[C@@H]5[C@@H](O)[C@@H](C)CN5C(=O)[C@H]([C@@H](C)O)NC(=O)[C@H]([C@H](O)[C@@H](O)c5ccc(O)cc5)NC(=O)[C@@H]5C[C@@H](O)CN5C(=O)[C@H]([C@@H](C)O)NC4=O)cc3)cc2)cc1` [CD101] ({pTerphenylCO(4''-OnC5H11)}-[Orn(4R-OH,5R-OCH2CH2NMe3+)]T[Hyp][hTyr(3S-OH,4S-OH)]T[Pro(3S-OH,4S-Me)]; lactam 1-C), the “clearance fold lower than anidulafungin” value ([1]; chimpanzee, 1 mg/kg i.v. infusion, 0.06 versus 0.42 ml/min/kg, n = 2/group) was “over 7 fold”, the “t1/2 fold longer than anidulafungin” value ([1]; chimpanzee, 1 mg/kg i.v. infusion, 81 versus 30 h, n = 2/group) was 2.7 fold and the AUC(0-inf) [1, 4] was 302 µg·h/mL. For the same compound, the AUC(0-t) [1, 4] was 290 µg·h/mL, the Cmax [1, 4] was 7.15 µg/mL and the Tmax [1, 4] was 1 h. For the same compound, the half-life [1, 4] was 80.7 h, the clearance ([1]; in vivo, iv, female chimpanzees, single 1 mg/kg i.v. infusion (1 h), plasma, LC-MS/MS, noncompartmental, n = 2, read-out: CL (clearance)) was 0.00341 L/h/kg and the Vd ([1]; in vivo, iv, female chimpanzees, single 1 mg/kg i.v. infusion (1 h), plasma, LC-MS/MS, noncompartmental, n = 2, read-out: Vss (volume of distribution at steady state)) was 0.4 L/kg. The AUC(0-t) ([2]; n = 3) was 92.1 µg·h/mL, the Cmax ([2]; n = 3) was 9.07 µg/mL and the Tmax ([2]; n = 3) was 0.167 h. It also gave a half-life ([2]; n = 3) of 39.7 h, a clearance ([2]; n = 3, read-out: CL (clearance)) of 0.0243 L/h/kg and a Vd ([2]; n = 3, read-out: Vss (volume of distribution at steady state)) of 0.597 L/kg. For the same compound, the half-life in human ([3]; for CD101 the effective half-life (covers the majority of the AUC)) was “about 90 h” and the “half-life in human, fold longer than anidulafungin” value [3] was “about 3 fold”.
